Common to all, as to type: biochemical
In test [1] the target is T1, Cys4 (C. albicans CBS) (Candida albicans, UniProt Q59T95).
T1 sequence (Q59T95 1-496): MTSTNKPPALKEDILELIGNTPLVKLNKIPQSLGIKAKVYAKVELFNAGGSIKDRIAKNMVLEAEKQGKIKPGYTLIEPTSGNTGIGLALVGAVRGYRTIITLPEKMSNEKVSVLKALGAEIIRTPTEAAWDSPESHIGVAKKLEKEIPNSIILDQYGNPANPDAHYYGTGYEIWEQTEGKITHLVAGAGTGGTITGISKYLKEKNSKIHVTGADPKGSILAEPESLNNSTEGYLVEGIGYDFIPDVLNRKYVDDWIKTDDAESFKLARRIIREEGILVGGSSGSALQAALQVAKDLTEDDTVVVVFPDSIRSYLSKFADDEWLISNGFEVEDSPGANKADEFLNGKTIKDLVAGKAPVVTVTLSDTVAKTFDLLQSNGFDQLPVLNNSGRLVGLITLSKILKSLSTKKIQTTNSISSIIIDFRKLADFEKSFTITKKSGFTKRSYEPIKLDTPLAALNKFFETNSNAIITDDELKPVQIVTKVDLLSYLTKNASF
In words: H2S generation, lead acetate, A390. To be noted: 10 mM L-cysteine, 10 mM L-homocysteine, 50 μM PLP, 200 mM Na/bicine pH 8.6, 37 °C; 10 min preincubation.

Test [2] deals with T1, Cys4 (C. albicans CBS). In words: H2S generation, lead acetate, A390. To be noted: 10 mM L-cysteine, 10 mM L-homocysteine, 50 μM PLP, 200 mM Na/bicine pH 8.6, 37 °C; screening hit.
Test [3] addresses T2, cCBS-cc (Candida albicans, UniProt Q59T95).
T2 sequence (Q59T95 1-319): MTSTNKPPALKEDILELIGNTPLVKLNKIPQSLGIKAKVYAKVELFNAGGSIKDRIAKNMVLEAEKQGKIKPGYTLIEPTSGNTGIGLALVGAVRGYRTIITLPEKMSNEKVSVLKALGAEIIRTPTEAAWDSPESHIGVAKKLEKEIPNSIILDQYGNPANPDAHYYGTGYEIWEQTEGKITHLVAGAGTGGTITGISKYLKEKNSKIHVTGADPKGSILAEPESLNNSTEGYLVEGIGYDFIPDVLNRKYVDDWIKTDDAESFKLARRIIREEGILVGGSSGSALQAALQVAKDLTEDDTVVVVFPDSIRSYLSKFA
As to the kind of experiment: H2S generation inhibition. Particulars: catalytic core.

The target of test [4] is T3, Cys3 (C. albicans CSE) (Candida albicans, UniProt Q5A362).
T3 sequence (Q5A362 1-399): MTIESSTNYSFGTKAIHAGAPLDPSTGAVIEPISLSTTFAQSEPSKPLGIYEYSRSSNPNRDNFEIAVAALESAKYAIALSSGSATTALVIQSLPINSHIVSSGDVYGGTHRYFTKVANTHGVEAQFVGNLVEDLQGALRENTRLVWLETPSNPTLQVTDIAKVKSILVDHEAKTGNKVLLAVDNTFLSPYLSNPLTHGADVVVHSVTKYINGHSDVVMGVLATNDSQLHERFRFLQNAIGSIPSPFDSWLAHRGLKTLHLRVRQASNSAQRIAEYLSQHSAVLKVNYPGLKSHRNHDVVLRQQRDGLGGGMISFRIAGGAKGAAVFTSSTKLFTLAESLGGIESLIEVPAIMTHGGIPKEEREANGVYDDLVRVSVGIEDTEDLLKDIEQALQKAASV
In words: CSE activity inhibition. Particulars: weaker inhibition than of CBS.

The target of test [5] is T4, human CBS (Homo sapiens, UniProt P35520).
T4 sequence (P35520 1-551): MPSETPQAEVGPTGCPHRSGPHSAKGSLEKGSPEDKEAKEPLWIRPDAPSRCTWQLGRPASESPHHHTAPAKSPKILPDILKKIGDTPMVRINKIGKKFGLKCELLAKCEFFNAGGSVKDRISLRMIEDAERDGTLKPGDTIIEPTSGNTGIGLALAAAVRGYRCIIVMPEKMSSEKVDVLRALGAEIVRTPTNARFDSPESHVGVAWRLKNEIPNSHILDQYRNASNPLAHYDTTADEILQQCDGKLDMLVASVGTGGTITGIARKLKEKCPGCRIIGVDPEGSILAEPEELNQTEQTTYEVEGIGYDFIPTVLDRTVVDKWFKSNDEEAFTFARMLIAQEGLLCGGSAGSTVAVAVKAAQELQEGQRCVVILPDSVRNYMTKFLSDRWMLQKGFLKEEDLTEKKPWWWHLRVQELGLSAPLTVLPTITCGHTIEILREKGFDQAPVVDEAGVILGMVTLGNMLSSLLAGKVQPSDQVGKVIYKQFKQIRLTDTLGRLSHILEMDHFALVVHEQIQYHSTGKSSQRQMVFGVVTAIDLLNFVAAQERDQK
In words: CBS activity inhibition. To be noted: weaker inhibition than of fungal CBS.

On to `NOCC(=O)O` [Aminooxyacetate], for which the dose-dependent inhibition result in test [1] was “Dose-dependent inhibition of C. albicans CBS activity by PA and AOA”. With `Cc1cc(O)cc2oc(=O)c3c(O)cc(O)cc3c12` [alternariol], the “H2S generation, lead acetate, A390” value in test [2] is “several hits that displayed much better activity than AOA, including PA”. In the case of `C=C1C(=O)O[C@@H](CCCCCCCCCCCCC)[C@@H]1C(=O)O` [protolichesterinic acid], the H2S generation inhibition entry in test [3] was “still maintains potent ability to generate H2S and is inhibited by PA (fig. S24)”. For the same molecule, in test [4], the CSE activity inhibition result was “it inhibited CBS more potently than CSE (fig. S18)”. In addition, in test [5], the CBS activity inhibition entry is “fungal CBS more potently than human CBS (fig. S19)”. In the case of `CC(=O)c1c(O)c(C)c(O)c2c1OC1=CC(=O)C(C(C)=O)C(=O)C12C` (stereo not drawn) [usnic acid], the “H2S generation, lead acetate, A390” value in test [2] was “alternariol, and usnic acid (Fig. 5A and fig. S17)”.

The values above are taken from article PMC9757746 (Science Advances, 2022).
